Source: US20100286145A1, “ISOPHTHALAMIDE DERIVATIVES INHIBITING BETA-SECRETASE ACTIVITY” (CoMentis, Inc., priority 2007, published 2010)
Like-named read-outs stand apart in the source and are kept apart here.

Columns and labels:
memapsin 2 = memapsin 2 (Homo sapiens, UniProt P56817); assay: Inhibition of memapsin 2 beta-secretase activity (fluorogenic substrate FS-2); type: biochemical; conditions: memapsin 2, pH 4, 37° C., read-out: M2Ki
Summary of the method: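 Memapsin 2 pre-incubated 20 min with compound at pH 4, 37° C, then FS-2 substrate (MCA-SEVNLDAEFK-DNP, APP Swedish cleavage site) added. Rate of fluorescence increase compared with uninhibited controls, fitted to a tight-binding inhibition model.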

[1] = tested on: Aβ production in Chinese hamster ovary cells that over-express human APP695 with the London and Swedish mutations; assay: Cellular Aβ IC50 determination (Aβ40 sandwich ELISA); type: cell-based; conditions: Cricetulus griseus; cellular Aβ production; read-out: IC50
Summary of the method: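 CHO cells overexpressing human APP695 with London and Swedish mutations, seeded at 10% confluency, treated with compounds up to about 4 μM final (0.4% DMSO). Secreted Aβ40 measured by sandwich ELISA relative to control and fitted to a 4-parameter IC50 model.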

Chain of memapsin 2 (P56817 46-501): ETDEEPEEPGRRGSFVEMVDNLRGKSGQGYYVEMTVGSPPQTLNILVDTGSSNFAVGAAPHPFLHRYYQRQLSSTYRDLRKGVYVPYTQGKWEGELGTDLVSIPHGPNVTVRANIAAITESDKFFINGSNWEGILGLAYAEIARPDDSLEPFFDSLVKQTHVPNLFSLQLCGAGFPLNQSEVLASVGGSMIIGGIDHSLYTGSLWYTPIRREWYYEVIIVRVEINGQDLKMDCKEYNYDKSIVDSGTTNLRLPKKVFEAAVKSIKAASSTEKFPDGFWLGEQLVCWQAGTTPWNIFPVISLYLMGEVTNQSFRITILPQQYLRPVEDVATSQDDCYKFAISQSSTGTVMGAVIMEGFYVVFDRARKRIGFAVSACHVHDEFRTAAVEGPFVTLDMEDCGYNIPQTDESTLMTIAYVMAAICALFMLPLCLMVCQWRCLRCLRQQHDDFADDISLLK

SMILES | Ki (memapsin 2; fluorogenic substrate FS-2) [nM] | IC50 [1] [nM] | Ki (memapsin 2; 20 minutes pre-incubation) [nM]
Cc1noc(CN(C)C(=O)c2cccc(C(=O)N[C@@H](Cc3ccccc3)[C@H](O)CNCc3cncc(C(C)C)c3)c2)n1 [Compound 235, N1-((2S,3R)-3-hydroxy-4-((5-isopropylpyridin-3-yl)methylamino)-1-phenylbutan-2-yl)-N3-methyl-N3-((3-methyl-1,2,4-oxadiazol-5-yl)methyl)isophthalamide] | < 300 | < 1000 | 
CC(=O)c1cc(C(=O)N[C@@H](Cc2ccccc2)[C@H](O)CNCc2cncc(C(C)C)c2)cc(C(=O)N(C)Cc2nc(C)cs2)c1 [Compound 237, 5-acetyl-N1-((2S,3R)-3-hydroxy-4-((5-isopropylpyridin-3-yl)methylamino)-1-phenylbutan-2-yl)-N3-methyl-N3-((4-methylthiazol-2-yl)methyl)isophthalamide] | < 300 | < 1000 | 
COc1cccc(CNC[C@@H](O)[C@H](Cc2ccccc2)NC(=O)c2cc(C(=O)NCc3nc(C)cs3)cc(N3CCCC3=O)c2)c1 [Compound 199, N1-((2S,3R)-3-hydroxy-4-(3-methoxybenzylamino)-1-phenylbutan-2-yl)-N3-((4-methylthiazol-2-yl)methyl)-5-(2-oxopyrrolidin-1-yl)isophthalamide] |  | > 5000 | > 501
Cc1csc(CN(C)C(=O)c2cccc(C(=O)N[C@@H](Cc3ccccc3)[C@H](O)CNCc3cc(CNS(C)(=O)=O)cc(C(C)C)c3)c2)n1 [Compound 175, N1-((2S,3R)-3-hydroxy-4-(3-isopropyl-5-(methylsulfonamidomethyl)benzylamino)-1-phenylbutan-2-yl)-N3-methyl-N3-((4-methylthiazol-2-yl)methyl)isophthalamide] |  | > 5000 | > 501
C=C(C)c1cccc(CNC[C@@H](O)[C@H](Cc2ccccc2)NC(=O)c2cccc(C(=O)N(C)Cc3nc(C)cs3)c2)c1 [Compound 168, N1-((2S,3R)-3-hydroxy-1-phenyl-4-(3-(prop-1-en-2-yl)benzylamino)butan-2-yl)-N3-methyl-N3-((4-methylthiazol-2-yl)methyl)isophthalamide] |  | < 1000 | < 300

Further lines, results first:

Ki (memapsin 2; fluorogenic substrate FS-2) [nM] | IC50 [1] [nM] | Ki (memapsin 2; 20 minutes pre-incubation) [nM] | SMILES
301 to 500 | < 1000 |  | COc1cccc(CNC[C@@H](O)[C@H](Cc2ccccc2)NC(=O)c2cc(C(=O)N[C@H](C)c3ccccc3)cc(-c3ncco3)c2)c1 [Compound 213, N1-((2S,3R)-3-hydroxy-4-(3-methoxybenzylamino)-1-phenylbutan-2-yl)-5-(oxazol-2-yl)-N3-((R)-1-phenylethyl)isophthalamide]
 | < 1000 | < 300 | CNC(=O)c1cc(CNC[C@@H](O)[C@H](Cc2ccccc2)NC(=O)c2cccc(C(=O)N(C)Cc3nc(C)cs3)c2)cc(OC)c1 [Compound 112, N1-((2S,3R)-3-hydroxy-4-(3-methoxy-5-(methylcarbamoyl)benzylamino)-1-phenylbutan-2-yl)-N3-methyl-N3-((4-methylthiazol-2-yl)methyl)isophthalamide]
 | < 1000 | < 300 | COc1cccc(CNC[C@@H](O)[C@H](Cc2ccccc2)NC(=O)c2cc(C(=O)O)cc(C(=O)N(C)Cc3nc(C)cs3)c2)c1 [Compound 19, 3-((2S,3R)-3-hydroxy-4-(3-methoxybenzylamino)-1-phenylbutan-2-ylcarbamoyl)-5-(methyl((4-methylthiazol-2-yl)methyl)carbamoyl)benzoic acid]
 | < 1000 | < 300 | C[C@@H](NC(=O)c1cc(C(=O)N[C@@H](Cc2ccccc2)[C@H](O)CNCc2cccc(C(C)(C)C)c2O)cc(N(C)S(C)(=O)=O)c1)c1ccccc1 [Compound 79, N1-((2S,3R)-4-(3-tert-butyl-2-hydroxybenzylamino)-3-hydroxy-1-phenylbutan-2-yl)-5-(N-methylmethylsulfonamido)-N3-((R)-1-phenylethyl)isophthalamide]
